The values that follow come from ChEMBL document CHEMBL1131961, “Protein kinase C modulators bearing dicarba-CLOSO-dodecaborane as a hydrophobic pharmacophore” (Bioorg Med Chem Lett, 1999).

For one test, the system named is HL-60. Nature of the test: Inhibition of HL-60 monocyte cell proliferation. The class given is functional. The following applies: Homo sapiens, read-out: ED50 (the source's name).
In test [1] the target is Protein kinase C delta type (Homo sapiens, UniProt Q05655). The test is described as follows: Displacement of [3H]-PDBu from human recombinant Protein kinase C delta.
Chain of Protein kinase C delta type (Q05655 whole entry): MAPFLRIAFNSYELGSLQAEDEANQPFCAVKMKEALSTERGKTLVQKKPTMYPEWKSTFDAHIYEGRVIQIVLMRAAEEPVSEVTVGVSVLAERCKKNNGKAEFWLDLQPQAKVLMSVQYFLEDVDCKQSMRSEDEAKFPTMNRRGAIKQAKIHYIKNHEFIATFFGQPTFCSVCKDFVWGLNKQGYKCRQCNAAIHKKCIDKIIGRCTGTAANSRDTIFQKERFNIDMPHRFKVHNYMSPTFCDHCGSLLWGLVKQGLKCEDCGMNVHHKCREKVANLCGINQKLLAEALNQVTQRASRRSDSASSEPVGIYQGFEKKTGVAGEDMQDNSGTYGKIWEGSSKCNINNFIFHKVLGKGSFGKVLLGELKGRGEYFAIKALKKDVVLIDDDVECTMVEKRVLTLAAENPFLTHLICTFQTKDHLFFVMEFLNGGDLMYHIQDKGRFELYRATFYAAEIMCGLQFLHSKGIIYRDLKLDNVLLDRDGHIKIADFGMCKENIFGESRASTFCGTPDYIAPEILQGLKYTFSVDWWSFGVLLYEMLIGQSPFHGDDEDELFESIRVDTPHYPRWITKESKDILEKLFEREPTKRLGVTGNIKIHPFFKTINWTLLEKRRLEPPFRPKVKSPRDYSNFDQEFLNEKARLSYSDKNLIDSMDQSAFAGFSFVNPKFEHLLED

As to `CCCCCCCCCCc1ccc2c(c1)N(C)[C@@H](C(C)C)C(=O)N[C@H](CO)C2`, the EC50 in the test with HL-60 stood at 5 nM. In addition, the Ki in test [1] stood at 1.8 nM.

Broadly, the Ki is a dissociation constant, usually derived from enzyme kinetics or from competition with a known ligand.
